Measurements published in article doi:10.1101/208439v1 (biorxiv, 2017).
Read-outs that look alike come from different tables or passages of the source. Each block holds one molecule with its values, some of them ahead of it.

What was measured:
NSD2 SET domain = molecular target: T1, NSD2 SET domain (Homo sapiens, UniProt O96028); assay: biochemical; set-up: Surface plasmon resonance binding to NSD2 SET domain; settings: binder
T1 construct: SET domain, residues 934-1241, N-terminal His tag, E. coli
T1 sequence (O96028 934-1241): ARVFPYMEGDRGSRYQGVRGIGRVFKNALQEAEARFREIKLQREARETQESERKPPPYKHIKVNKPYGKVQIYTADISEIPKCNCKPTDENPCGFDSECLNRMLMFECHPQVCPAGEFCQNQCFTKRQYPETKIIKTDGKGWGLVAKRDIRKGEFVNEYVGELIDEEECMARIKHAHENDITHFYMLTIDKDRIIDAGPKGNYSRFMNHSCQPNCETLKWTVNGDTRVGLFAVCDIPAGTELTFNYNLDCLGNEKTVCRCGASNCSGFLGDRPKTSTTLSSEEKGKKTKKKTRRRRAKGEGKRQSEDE
Method: To support an on-target mechanism of action for the five inhibitors, surface plasmon resonance (SPR) was used to determine whether each inhibitor interacts with the catalytic SET domain of NSD2. […] Chaetocin bound the SET domain with an apparent dissociation constant of 20 nM. Additionally, the data indicated super-stoichiometric binding, which might be due to a binding ratio higher than 1:1 that is consistent with chaetocin’s two disulfide moieties forming adducts with the NSD2 protein, or compound aggregation (data not shown) ([56]).

PRMT4 = molecular target: T2, PRMT4 (Homo sapiens, UniProt Q86X55); settings: read-out: DA3003-1 IC50; inhibitor
T2 construct: gene CARM1
T2 sequence (Q86X55 whole entry): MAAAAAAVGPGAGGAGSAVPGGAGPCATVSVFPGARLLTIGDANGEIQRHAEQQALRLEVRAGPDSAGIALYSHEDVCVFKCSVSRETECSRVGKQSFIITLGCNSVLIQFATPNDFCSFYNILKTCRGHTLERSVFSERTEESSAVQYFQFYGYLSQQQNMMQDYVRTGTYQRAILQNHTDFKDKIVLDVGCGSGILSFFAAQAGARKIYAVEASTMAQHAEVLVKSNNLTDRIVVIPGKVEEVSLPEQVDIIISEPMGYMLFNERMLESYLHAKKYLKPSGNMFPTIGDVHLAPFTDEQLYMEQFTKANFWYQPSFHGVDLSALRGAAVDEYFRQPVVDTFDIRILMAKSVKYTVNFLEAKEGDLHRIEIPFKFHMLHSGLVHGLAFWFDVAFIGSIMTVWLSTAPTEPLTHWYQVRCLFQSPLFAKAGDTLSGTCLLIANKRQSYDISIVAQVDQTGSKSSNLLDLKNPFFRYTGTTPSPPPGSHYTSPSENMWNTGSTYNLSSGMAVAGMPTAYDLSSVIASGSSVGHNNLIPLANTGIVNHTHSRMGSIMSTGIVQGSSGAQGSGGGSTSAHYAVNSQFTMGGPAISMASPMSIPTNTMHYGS

PRMT7 = PRMT7 (Homo sapiens, UniProt Q9NVM4); assay: biochemical; settings: read-out: DA3003-1 IC50; inhibitor
Chain of PRMT7 (Q9NVM4 whole entry): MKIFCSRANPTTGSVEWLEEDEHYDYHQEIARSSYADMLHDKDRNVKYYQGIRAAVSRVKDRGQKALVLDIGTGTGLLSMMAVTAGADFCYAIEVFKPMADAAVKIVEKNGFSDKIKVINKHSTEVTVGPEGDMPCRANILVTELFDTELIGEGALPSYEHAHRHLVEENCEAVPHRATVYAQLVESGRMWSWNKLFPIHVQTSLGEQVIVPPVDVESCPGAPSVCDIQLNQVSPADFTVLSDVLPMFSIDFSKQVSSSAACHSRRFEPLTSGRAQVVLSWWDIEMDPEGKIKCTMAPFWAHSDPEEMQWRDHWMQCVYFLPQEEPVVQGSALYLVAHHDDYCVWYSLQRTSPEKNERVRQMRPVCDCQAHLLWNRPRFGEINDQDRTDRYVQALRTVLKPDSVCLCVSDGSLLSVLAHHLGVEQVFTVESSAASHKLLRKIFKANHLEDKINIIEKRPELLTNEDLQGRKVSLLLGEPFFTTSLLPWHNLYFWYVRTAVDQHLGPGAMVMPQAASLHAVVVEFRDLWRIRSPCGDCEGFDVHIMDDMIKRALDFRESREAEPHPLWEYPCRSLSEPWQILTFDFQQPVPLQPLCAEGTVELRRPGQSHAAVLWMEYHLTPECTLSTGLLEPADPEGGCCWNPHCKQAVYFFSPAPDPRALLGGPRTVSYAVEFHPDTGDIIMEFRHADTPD

DNMT3b/3L = DNMT3b/3L (Homo sapiens, UniProt Q9UBC3); assay: biochemical
DOT1L = molecular target: T3, DOT1L (Homo sapiens, UniProt Q8TEK3); assay: HotSpot [3H]SAM filter-binding methyltransferase assay; format: biochemical
T3 construct: residues 1-416, N-terminal GST fusion, E. coli
T3 sequence (Q8TEK3 1-416): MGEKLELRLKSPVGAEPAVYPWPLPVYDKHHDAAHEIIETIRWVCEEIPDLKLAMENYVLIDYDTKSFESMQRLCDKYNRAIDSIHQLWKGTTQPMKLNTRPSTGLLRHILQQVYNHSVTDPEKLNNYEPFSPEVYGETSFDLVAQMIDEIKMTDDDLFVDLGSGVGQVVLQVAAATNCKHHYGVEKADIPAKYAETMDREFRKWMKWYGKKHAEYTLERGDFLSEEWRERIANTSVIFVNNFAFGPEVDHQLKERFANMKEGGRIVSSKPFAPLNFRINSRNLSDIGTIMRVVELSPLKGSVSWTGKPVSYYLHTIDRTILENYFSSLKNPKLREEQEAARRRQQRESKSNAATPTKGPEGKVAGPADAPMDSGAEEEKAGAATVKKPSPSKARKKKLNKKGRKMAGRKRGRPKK

NSD2 = molecular target: T4, NSD2 (Homo sapiens, UniProt O96028); assay: biochemical; set-up: MTase-Glo bioluminescence methyltransferase assay, full-length NSD2 with HeLa nucleosomes; settings: read-out: MTase-Glo IC50
T4 construct: full length (residues 2-1365), N-terminal His tag, insect cell/baculovirus
T4 sequence (O96028 2-1365): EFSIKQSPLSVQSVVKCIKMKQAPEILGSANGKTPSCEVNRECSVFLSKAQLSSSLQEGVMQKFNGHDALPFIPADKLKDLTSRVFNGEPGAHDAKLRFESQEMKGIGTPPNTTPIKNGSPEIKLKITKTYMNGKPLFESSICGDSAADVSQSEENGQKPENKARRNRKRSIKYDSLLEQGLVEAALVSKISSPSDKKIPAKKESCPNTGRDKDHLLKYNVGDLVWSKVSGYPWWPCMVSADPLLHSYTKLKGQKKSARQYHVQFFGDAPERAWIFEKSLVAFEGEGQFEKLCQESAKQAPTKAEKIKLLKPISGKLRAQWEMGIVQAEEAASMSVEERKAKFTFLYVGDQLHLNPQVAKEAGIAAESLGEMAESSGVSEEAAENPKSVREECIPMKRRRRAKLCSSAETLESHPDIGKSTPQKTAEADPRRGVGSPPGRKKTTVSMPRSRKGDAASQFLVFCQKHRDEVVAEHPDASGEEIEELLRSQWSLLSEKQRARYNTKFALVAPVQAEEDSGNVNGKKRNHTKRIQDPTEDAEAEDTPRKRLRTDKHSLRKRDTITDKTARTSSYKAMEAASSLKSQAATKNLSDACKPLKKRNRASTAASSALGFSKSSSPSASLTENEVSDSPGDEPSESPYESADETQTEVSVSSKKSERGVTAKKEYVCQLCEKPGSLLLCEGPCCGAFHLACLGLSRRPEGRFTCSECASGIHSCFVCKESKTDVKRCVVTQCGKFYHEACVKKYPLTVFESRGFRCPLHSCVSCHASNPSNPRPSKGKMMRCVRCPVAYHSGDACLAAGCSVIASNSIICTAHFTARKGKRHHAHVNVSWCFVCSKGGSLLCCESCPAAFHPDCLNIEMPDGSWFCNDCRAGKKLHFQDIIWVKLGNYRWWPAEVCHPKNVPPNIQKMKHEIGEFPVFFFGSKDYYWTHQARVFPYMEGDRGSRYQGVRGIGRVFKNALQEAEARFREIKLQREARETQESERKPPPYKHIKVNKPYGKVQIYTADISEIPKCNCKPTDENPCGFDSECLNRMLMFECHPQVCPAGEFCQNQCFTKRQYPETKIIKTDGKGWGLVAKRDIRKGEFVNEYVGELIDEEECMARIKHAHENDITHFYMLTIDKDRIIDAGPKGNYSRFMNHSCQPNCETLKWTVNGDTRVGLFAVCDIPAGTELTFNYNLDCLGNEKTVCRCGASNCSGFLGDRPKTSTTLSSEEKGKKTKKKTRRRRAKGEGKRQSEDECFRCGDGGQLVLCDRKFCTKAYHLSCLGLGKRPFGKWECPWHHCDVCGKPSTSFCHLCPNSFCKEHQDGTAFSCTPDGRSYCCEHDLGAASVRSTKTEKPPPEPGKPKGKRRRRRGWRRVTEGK
From the text: A major challenge in screening for small molecule inhibitors is that native NSD2 requires nucleosomes as a substrate ([17]). […] Chemical libraries were screened in 3-dose point quantitative high-throughput screening (qHTS) format ([43]) with the Methyltransferase-Glo (MTase-Glo™) methyltransferase bioluminescence assay ([44]). A number of counter and orthogonal assays were also developed to characterize the hits from the primary screen. Confirmed hits were validated with a radiolabeled SAM substrate-based NSD2 activity assay and further interrogated with binding studies by surface plasmon resonance (SPR), methyltransferase profiling, and activity assessments in U-2 OS cells. […] Overall the reaction conditions were very similar.

Kd (NSD2 SET domain): 370 nM | IC50 (PRMT4): 1400 nM | IC50 (PRMT7): 420 nM | IC50 (DNMT3b/3L; read-out: DA3003-1 IC50, inhibitor): 720 nM
SMILES: O=C1C(Cl)=C(NCCN2CCOCC2)C(=O)c2ncccc21 [DA3003-1]

IC50 (DOT1L; nucleosomes, […] SAM, pH […] MgCl2, […] DTT, […] °C, single experiment): 8200 nM | IC50 (DNMT3b/3L): 30000 nM
SMILES: COc1cccc(-n2nc(C(=O)O)cc2-c2ccc(C3CCCCC3)c(Cl)c2)c1 [TC LPA5 4]

koff (NSD2 SET domain): 0.0364 s⁻¹ | kon (NSD2 SET domain): 4390 M⁻¹ s⁻¹ | IC50 (DOT1L): 2000 nM | IC50 (NSD2): 15000 nM
SMILES: CC1(C)CCC(CN2CCN(c3ccc(C(=O)NS(=O)(=O)c4ccc(NCC5CCOCC5)c([N+](=O)[O-])c4)c(Oc4cnc5[nH]ccc5c4)c3)CC2)=C(c2ccc(Cl)cc2)C1 [ABT-199]
